Biological target: Cannabinoid receptor 1 (Homo sapiens, UniProt P21554)
Sequence (P21554 whole entry): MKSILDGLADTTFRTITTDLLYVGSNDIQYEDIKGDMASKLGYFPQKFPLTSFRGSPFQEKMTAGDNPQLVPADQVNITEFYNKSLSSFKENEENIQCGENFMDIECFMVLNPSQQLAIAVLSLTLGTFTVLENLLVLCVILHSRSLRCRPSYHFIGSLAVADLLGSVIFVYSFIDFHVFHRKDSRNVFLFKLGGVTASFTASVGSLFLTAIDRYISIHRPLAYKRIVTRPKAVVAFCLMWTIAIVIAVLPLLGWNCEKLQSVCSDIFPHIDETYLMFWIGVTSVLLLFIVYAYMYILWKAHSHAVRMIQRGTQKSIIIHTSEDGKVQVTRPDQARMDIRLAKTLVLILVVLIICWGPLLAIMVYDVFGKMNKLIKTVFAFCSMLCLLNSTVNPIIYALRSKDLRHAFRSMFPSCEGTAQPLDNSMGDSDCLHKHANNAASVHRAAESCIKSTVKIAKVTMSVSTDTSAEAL

Compound: CC(C)(C)c1nc(N2CCC(F)(F)C2)c2nn(Cc3ccc(C4(C(F)(F)F)N=N4)cc3Cl)nc2n1 [US10457686, Example 1]
- Ki: > 10 µM
